According to ChEMBL document CHEMBL5053510, “Discovery of AS-1763: A Potent, Selective, Noncovalent, and Orally Available Inhibitor of Bruton's Tyrosine Kinase” (J Med Chem, 2021):
The source made the active and inactive calls. The rule behind the calls is not given here.

What was measured:
[1] = Initial plasma concentration in dog at 1 mg/kg, iv; format: ADME, organism-based, Canis lupus familiaris
[2] = Clearence in dog at 1 mg/kg, iv; format: ADME, organism-based, Canis lupus familiaris; conditions: in vivo
Cytochrome P450 1A2 = Cytochrome P450 1A2 (Homo sapiens, UniProt P05177); assay: Inhibition of CYP1A2 (unknown origin); format: ADME
[3] = target: Epithelial discoidin domain-containing receptor 1 (Homo sapiens, UniProt Q08345); assay: Inhibition of human DDR1 (444 - 876 residues) expressed in baculovirus expression system at 0.3 uM by mobility shift assay
[4] = target: Tyrosine-protein kinase Tec (Homo sapiens) (UniProt P42680); assay: Inhibition of human TEC (359- 631) expressed in baculovirus expression system at 0.3 uM by mobility shift assay
[5] = target: Tyrosine-protein kinase BTK (Homo sapiens, UniProt Q06187, C481S); assay: Inhibition of BTK C481S mutant (unknown origin) in presence of 1 mM ATP by microplate reader assay
[6] = target: Cytoplasmic tyrosine-protein kinase BMX (Homo sapiens) (UniProt P51813); assay: Inhibition of human full-length BMX (1 to 675 residues) expressed in baculovirus expression system at 0.3 uM by mobility shift assay
[7] = Plasma protein binding in dog; format: ADME, cell-free, Canis lupus familiaris; conditions: read-out: PPB (converted)
[8] = target: Cytoplasmic tyrosine-protein kinase BMX (Homo sapiens, UniProt P51813); assay: Inhibition of human full-length BMX (1 to 675 residues) expressed in baculovirus expression system by mobility shift assay
[9] = target: Muscle, skeletal receptor tyrosine-protein kinase (Homo sapiens, UniProt O15146); assay: Inhibition of human MUSK expressed in baculovirus expression system by mobility shift assay
OCI-Ly10 [10] = assay: Antiproliferative activity against human OCILY10 cells assessed as reduction in cell proliferation measured after 96 hrs; format: functional, cell-based; conditions: OCI-Ly10, 96 h
[11] = Tmax in dog at 5 mg/kg, po; format: ADME, organism-based, Canis lupus familiaris; conditions: in vivo
[12] = target: Muscle, skeletal receptor tyrosine-protein kinase (Homo sapiens) (UniProt O15146); assay: Inhibition of human MUSK expressed in baculovirus expression system at 0.3 uM by mobility shift assay
[13] = Apparent permeability of the compound in human Caco-2 cells; format: ADME, cell-based
Cytochrome P450 2B6 = Cytochrome P450 2B6 (Homo sapiens, UniProt P20813); assay: Inhibition of CYP2B6 (unknown origin); format: ADME
HEL 299 = assay: Cytotoxicity against human HEL 299 cells assessed as cell growth inhibition measured after 96 hrs; format: cell-based; conditions: HEL 299, 96 h
[14] = target: Tyrosine-protein kinase BTK (Homo sapiens, UniProt Q06187); assay: Inhibition of wild type BTK (unknown origin) in presence of 1 mM ATP by microplate reader assay
[15] = MRT (0 to last) in mouse at 15 mg/kg, po; format: ADME, organism-based; conditions: in vivo
[16] = Volume of distribution in steady state rat at 2 mg/kg, iv; format: ADME, organism-based; conditions: in vivo, read-out: Vdss
[17] = Initial plasma concentration in rat at 15 mg/kg, po; format: ADME, organism-based; conditions: in vivo
[18] = Plasma protein binding in mouse; format: ADME, cell-free; conditions: read-out: PPB (converted)
[19] = target: T1, Proto-oncogene tyrosine-protein kinase Src (Homo sapiens, UniProt P12931); assay: Inhibition of human full length SRC expressed in baculovirus expression system at 0.3 uM by mobility shift assay
[20] = Half life in dog at 1 mg/kg, iv; format: ADME, organism-based, Canis lupus familiaris; conditions: in vivo
[21] = target: T1, Proto-oncogene tyrosine-protein kinase Src; assay: Inhibition of human full length SRC expressed in baculovirus expression system by mobility shift assay
[22] = Initial plasma concentration in mouse at 15 mg/kg, po; format: ADME, organism-based; conditions: in vivo
[23] = Half life in mouse at 2 mg/kg, iv; format: ADME, organism-based; conditions: in vivo
Cytochrome P450 2D6 = Cytochrome P450 2D6 (Homo sapiens, UniProt P10635); assay: Inhibition of […] (unknown origin); format: ADME
[24] = Tmax in mouse at 15 mg/kg, po; format: ADME, organism-based; conditions: in vivo
[25] = target: Tyrosine-protein kinase BTK (Mus musculus) (UniProt P35991); assay: In vivo inhibition of autophosphorylation of BTK at Y223 in mouse at 7.5 to 30 mg/kg, po measured up to 8 hrs by Western blot analysis; format: functional, organism-based; conditions: dose 7.5-30 mg/kg
[26] = MRT (0 to last) in dog at 1 mg/kg, iv; format: ADME, organism-based, Canis lupus familiaris; conditions: in vivo
[27] = Initial plasma concentration in rat at 2 mg/kg, iv; format: ADME, organism-based
Cytochrome P450 3A4 = Cytochrome P450 3A4 (Homo sapiens, UniProt P08684); assay: Inhibition of CYP3A4 (unknown origin); format: ADME
Cytochrome P450 2C19 = Cytochrome P450 2C19 (Homo sapiens, UniProt P33261); assay: Inhibition of CYP2C19 (unknown origin); format: ADME
[28] = Volume of distribution at steady state in mouse at 2 mg/kg, iv; format: ADME, organism-based; conditions: in vivo, read-out: Vdss
[29] = MRT (0 to last) in rat at 15 mg/kg, po; format: ADME, organism-based; conditions: in vivo
Cytochrome P450 2C8 = Cytochrome P450 2C8 (Homo sapiens, UniProt P10632); assay: Inhibition of CYP2C8 (unknown origin); format: ADME
OCI-Ly10 [30] = assay: Antiproliferative activity against human OCILY10 cells harboring BTK C481S mutant […] gene assessed as reduction in cell viability after 96 hrs; format: functional, cell-based; conditions: OCI-Ly10, 96 h
[31] = AUC (0 to last) in dog at 5 mg/kg, po; format: ADME, organism-based, Canis lupus familiaris; parameters: time 0 - last, dose 5 mg/kg, route po; conditions: in vivo
[32] = Half life in rat at 2 mg/kg, iv; format: ADME, organism-based; conditions: in vivo
OCI-Ly10 [33] = assay: Antitumor activity against human OCILY10 cells xenografted in SCID mouse assessed as tumor growth inhibition at 20 mg/kg, po bid measured after 63 days; format: functional; conditions: OCI-Ly10, 1512 h, time 63 day, read-out: TGI
[34] = Tmax in rat at 15 mg/kg, po; format: ADME, organism-based; conditions: in vivo

T1 sequence (P12931 2-536 limits assumed): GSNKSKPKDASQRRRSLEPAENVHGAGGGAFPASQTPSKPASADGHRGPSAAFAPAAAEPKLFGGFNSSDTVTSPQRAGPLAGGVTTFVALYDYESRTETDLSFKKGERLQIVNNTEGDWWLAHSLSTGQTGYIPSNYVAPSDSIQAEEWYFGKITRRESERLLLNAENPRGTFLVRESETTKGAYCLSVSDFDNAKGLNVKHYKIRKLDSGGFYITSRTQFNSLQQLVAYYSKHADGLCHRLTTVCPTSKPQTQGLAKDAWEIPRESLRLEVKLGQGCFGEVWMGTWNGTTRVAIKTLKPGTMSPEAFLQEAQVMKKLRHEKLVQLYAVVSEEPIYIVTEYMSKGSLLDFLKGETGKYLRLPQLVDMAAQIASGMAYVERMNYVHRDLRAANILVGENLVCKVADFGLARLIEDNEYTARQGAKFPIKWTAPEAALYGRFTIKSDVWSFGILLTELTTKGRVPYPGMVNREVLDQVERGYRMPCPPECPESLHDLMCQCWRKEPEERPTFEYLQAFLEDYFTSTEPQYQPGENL
Sequence of Cytochrome P450 1A2 (P05177 whole entry, the tested form may be a part): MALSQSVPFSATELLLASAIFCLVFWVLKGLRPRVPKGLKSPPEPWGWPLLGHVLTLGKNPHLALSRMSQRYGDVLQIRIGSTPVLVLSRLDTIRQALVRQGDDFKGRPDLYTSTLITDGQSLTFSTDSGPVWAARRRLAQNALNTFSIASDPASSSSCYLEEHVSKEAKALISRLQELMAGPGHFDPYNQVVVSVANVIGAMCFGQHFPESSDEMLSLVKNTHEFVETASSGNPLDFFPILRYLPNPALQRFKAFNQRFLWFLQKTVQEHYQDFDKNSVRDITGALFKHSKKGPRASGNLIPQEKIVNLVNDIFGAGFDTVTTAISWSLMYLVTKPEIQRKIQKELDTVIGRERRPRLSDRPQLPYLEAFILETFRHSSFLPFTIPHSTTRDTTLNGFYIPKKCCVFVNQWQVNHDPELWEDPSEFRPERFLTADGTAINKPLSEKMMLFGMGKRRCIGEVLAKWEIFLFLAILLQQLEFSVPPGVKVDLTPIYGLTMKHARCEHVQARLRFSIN
Sequence of Cytochrome P450 2D6 (P10635 whole entry): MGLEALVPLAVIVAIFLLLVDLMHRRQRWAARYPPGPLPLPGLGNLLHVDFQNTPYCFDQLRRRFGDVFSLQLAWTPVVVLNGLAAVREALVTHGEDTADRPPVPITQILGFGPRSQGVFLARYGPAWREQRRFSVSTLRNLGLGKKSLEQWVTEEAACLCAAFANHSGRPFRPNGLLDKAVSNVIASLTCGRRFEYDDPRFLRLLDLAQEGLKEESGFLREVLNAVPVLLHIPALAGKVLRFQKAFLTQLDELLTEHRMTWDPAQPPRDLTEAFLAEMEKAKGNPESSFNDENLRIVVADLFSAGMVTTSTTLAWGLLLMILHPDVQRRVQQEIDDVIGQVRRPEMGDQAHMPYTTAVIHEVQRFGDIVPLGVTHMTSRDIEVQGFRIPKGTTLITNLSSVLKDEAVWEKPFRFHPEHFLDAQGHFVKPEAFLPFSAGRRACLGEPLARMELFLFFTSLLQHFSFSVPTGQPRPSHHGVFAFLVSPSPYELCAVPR
Sequence of Cytochrome P450 3A4 (P08684 whole entry): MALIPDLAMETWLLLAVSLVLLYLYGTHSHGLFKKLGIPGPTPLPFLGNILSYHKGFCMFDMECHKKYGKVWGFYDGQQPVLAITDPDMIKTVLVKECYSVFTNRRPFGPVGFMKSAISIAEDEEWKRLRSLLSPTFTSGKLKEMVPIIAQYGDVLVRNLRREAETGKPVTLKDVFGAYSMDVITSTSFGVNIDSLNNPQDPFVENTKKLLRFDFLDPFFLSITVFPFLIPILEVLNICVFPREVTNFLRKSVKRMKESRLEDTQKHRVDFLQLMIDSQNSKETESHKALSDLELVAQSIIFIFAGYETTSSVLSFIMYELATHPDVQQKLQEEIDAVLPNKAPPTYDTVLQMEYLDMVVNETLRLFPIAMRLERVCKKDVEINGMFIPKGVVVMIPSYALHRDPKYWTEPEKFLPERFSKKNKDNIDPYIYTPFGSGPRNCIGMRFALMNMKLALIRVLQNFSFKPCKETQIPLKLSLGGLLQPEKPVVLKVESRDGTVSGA
Sequence of Tyrosine-protein kinase BTK (Homo sapiens, UniProt Q06187, C481S) (Q06187 2-659 C481S limits assumed): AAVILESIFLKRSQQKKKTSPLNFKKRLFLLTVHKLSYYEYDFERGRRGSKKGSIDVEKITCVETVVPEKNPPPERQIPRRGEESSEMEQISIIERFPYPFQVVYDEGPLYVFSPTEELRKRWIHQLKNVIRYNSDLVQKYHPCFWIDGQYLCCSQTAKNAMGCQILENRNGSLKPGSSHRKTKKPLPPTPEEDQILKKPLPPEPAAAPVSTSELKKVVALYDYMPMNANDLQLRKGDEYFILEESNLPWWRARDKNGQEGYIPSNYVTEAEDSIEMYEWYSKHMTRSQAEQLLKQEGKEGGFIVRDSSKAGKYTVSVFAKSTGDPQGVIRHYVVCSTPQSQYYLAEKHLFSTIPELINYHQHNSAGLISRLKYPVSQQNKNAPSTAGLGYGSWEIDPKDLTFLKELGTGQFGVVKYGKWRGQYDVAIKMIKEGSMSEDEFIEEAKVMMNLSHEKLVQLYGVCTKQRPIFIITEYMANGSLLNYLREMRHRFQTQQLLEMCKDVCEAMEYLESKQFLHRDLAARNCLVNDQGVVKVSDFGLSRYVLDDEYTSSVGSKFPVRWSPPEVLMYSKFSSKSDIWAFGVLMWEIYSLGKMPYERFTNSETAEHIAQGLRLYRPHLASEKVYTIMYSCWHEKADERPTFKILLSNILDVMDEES
Sequence of Cytoplasmic tyrosine-protein kinase BMX (P51813 whole entry, the tested form may be a part): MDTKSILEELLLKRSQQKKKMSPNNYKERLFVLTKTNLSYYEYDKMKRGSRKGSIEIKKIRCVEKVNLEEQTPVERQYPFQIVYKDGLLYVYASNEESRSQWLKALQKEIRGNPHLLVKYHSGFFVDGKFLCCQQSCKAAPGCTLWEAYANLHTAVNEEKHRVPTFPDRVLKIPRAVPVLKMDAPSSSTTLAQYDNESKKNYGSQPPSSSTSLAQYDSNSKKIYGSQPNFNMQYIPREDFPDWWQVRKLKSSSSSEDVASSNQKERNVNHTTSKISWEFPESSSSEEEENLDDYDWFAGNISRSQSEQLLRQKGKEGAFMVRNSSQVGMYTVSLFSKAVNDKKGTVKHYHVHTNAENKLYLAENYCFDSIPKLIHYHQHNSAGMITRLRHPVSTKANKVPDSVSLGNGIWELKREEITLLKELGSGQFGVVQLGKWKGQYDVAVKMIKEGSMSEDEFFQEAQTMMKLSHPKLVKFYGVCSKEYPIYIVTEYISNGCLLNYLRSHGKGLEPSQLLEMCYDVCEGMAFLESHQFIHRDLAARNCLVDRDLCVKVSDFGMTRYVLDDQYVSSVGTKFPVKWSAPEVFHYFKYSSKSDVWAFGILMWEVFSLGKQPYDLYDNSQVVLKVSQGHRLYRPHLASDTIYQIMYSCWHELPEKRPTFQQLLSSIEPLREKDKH
Sequence of Cytoplasmic tyrosine-protein kinase BMX (Homo sapiens) (P51813 whole entry, the tested form may be a part): as above
Sequence of Cytochrome P450 2C8 (P10632 whole entry): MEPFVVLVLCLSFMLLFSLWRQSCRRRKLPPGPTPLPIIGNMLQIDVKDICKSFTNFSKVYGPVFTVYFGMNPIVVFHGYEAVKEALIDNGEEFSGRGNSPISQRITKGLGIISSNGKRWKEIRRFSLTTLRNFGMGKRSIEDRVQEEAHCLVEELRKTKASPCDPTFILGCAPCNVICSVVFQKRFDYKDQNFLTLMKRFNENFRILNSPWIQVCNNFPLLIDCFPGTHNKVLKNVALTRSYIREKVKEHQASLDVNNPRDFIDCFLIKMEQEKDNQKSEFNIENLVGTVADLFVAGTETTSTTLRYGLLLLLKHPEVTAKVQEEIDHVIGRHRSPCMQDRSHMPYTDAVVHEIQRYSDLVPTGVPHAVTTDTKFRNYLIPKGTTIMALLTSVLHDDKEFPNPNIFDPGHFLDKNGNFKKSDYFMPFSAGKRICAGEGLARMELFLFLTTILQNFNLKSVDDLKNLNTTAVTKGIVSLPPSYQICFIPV
Sequence of Cytochrome P450 2C19 (P33261 whole entry): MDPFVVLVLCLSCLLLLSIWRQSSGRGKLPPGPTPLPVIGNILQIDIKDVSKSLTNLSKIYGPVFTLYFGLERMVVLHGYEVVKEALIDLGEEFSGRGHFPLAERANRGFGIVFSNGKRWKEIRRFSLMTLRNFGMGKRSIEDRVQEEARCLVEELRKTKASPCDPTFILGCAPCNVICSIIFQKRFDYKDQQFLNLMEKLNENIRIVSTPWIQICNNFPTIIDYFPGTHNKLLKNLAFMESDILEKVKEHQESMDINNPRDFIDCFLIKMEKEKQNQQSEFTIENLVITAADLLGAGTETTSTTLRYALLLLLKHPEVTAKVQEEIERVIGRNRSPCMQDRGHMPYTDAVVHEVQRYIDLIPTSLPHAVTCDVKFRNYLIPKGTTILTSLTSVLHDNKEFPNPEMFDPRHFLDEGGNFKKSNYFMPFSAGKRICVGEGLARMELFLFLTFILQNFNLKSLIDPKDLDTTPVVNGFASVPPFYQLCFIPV
Sequence of Cytochrome P450 2B6 (P20813 whole entry): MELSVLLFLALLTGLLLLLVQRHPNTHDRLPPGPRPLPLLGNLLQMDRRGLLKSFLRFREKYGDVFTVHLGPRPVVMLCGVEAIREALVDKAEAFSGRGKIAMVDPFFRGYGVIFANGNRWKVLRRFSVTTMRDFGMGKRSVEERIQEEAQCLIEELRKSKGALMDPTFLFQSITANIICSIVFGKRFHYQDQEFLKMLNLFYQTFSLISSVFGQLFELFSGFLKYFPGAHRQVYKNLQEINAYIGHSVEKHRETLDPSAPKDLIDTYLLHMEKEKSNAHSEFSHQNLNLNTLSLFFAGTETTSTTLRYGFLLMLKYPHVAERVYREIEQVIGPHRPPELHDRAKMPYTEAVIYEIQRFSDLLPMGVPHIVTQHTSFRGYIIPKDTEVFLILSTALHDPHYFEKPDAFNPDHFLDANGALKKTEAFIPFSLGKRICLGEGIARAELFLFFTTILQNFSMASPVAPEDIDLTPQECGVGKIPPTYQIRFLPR

Nc1nc(-c2cccc(-n3ccc4cc(C5CC5)cc(F)c4c3=O)c2CO)c2cc(C3=CCN(C4COC4)CC3)[nH]c2n1 [MILREBRUTINIB]
C0 [1]: 1280 ng/mL
clearance [2]: 22.7 mL/min/kg
IC50 (Cytochrome P450 1A2): > 10000 nM
inhibition [3]: 53.4%
inhibition [4]: 99.6%
IC50 [5]: 5.88 nM
inhibition [6]: 97.7%
fraction unbound [7]: 0.015
IC50 [8]: 8.49 nM
IC50 [9]: 306 nM
IC50 (OCI-Ly10 [10]): 2 nM
Tmax [11]: 0.833 h
inhibition [12]: 53.2%
Papp [13]: 1.42 ×10⁻⁶ cm/s
IC50 (Cytochrome P450 2B6): > 10000 nM
IC50 (HEL 299): 6370 nM
IC50 [14]: 3.72 nM
MRT last [15]: 3.58 h
Vd [16]: 3.64 L/kg
C0 [17]: 418 ng/mL
fraction unbound [18]: 0.008
inhibition [19]: 51.9%
half-life [20]: 1.29 h
IC50 [21]: 291 nM
C0 [22]: 1717 ng/mL
half-life [23]: 1.12 h
IC50 (Cytochrome P450 2D6): > 10000 nM
Tmax [24]: 2 h
inhibition [25]: Active
MRT last [26]: 1.23 h
C0 [27]: 874 ng/mL
IC50 (Cytochrome P450 3A4): > 10000 nM
IC50 (Cytochrome P450 2C19): > 10000 nM
Vd [28]: 1.61 L/kg
MRT last [29]: 4.03 h
IC50 (Cytochrome P450 2C8): 3170 nM
IC50 (OCI-Ly10 [30]): 20.4 nM
AUC(0-t) [31]: 2490 ng·h/mL
half-life [32]: 2.65 h
inhibition in vivo at 20 mg/kg (OCI-Ly10 [33]): 81.6%
Tmax [34]: 2 h
